# Experimental data reported in patent publication US20100285959A1, “HERBICIDAL MIXTURES” (priority 2006, published 2010).
# What was measured:
# giant ragweed (AMBTR) = experiment: Test 26 field trial, postemergence; format: in vivo, Ambrosia trifida
# Text: (§1) Corn seeds (hybrid ‘Pioneer 31G96’) were planted in mid spring season, 3.8 cm deep in a silt loam soil having 2% organic matter and a pH of 6.6. Plots were 6.1 m long by 3.0 m wide with rows spaced 76 cm apart. Seeds were spaced 15 cm apart within the rows. The field was managed using conventional tillage practices. […] All treatments also included a surfactant. […] Some of the weed species could not be evaluated at every timing. […] Results are the means of the three replicates.
# [1] = tested on: common lambsquarters (CHEAL); experiment: Test 24 growth chamber, postemergence; format: in vivo, Chenopodium album; details: 17 DAA
# Procedure: (§2) Plants were treated postemergence at the 2-4 leaf growth stage, and each treatment was replicated three times. […] Plants were watered as needed. […] Results for barley and wheat are the means across varieties of the three replicates, and results for the weeds are the means of the three replicates.
# redroot pigweed (AMARE) = experiment: Test 25 field trial, postemergence, growth as percent of control; format: in vivo, Amaranthus retroflexus
# Text: Corn seeds (hybrid ‘Pioneer 31G96 RR’) were planted in mid spring season, 3.8 cm deep in a clay loam soil having 2% organic matter and a pH of 6.6. Plots were 6.1 m long by 3.0 m wide with rows spaced 76 cm apart. Seeds were spaced 15 cm apart within the rows. The field was managed using conventional tillage practices. […] Giant ragweed and Pennsylvania smartweed could only be evaluated 14 days after application. […] Results are the means of the three replicates. This growth inhibition data was converted to results in the form of “plant growth as a percent of control plant growth” using the calculation “100 minus growth inhibition”.
# When this form of Colby's Equation is used, if the observed effects on weeds are less than the expected values, the mixture is synergistic.
# field poppy (PAPRH) = experiment: Test 24 growth chamber, postemergence; format: in vivo, Papaver rhoeas; details: 17 DAA
# Procedure: as §2
# Russian thistle (SASKR) = experiment: Test 24 growth chamber, postemergence; format: in vivo, Salsola kali; details: 17 DAA
# Procedure: as §2
# velvetleaf (ABUTH) = experiment: Test 26 field trial, postemergence; format: in vivo, Abutilon theophrasti
# Text: as §1
# [2] = tested on: ivyleaf morningglory (IPOHE); experiment: Test 28 greenhouse, postemergence; format: in vivo, Ipomoea hederacea; details: 26 DAA
# Procedure: A greenhouse test was conducted to evaluate the effects on the plant species corn (ZEAMD, Zea mays ssp. indentata), sorghum (SORVU, Sorghum vulgare L.), dry-seeded rice (ORYSA, Oryza sativa L.), wheat (TRZAW, Triticum aestivum L.), ivyleaf morningglory (IPOHE, Ipomoea hederacea (L.) JACQ.), and barnyardgrass (ECHCG, Echinochloa crus-galli (L.) P. BEAUV.), of mixtures of Compound 2 with isoxadifen-ethyl. Corn, sorghum, rice, wheat, ivyleaf morningglory and barnyardgrass seeds were planted in RediEarth, a commercial potting medium. […] Corn plants were treated postemergence at the V2 growth stage, and sorghum, rice, wheat, ivyleaf morningglory, and barnyardgrass plants were treated postemergence at the 3-leaf stage. […] Each treatment was replicated three times. […] Plants were watered as needed.
# field pennycress (THLAR) = experiment: Test 4 field trial, postemergence; format: in vivo, Thlaspi arvense; set-up: scale not given here
# Procedure: A field trial was conducted to evaluate the effects of mixtures of Compound 2 with commercial herbicides on spring wheat (TRZAS, Triticum aestivum L.) and several weed species. Wheat seeds (cv. ‘AC Intrepid’) were planted in late spring season, 3.8 cm deep in a loam soil having 2.7% organic matter and a pH of 7. Plots were 6 m long by 2.5 m wide. The field was managed using no-till practices. The plots were arranged in a randomized complete block design with each treatment being replicated four times. Treatments were applied postemergence 25 days after planting using a backpack sprayer delivering a spray volume of 55 L/ha using a pressure of 276 kPa. […] Compound 2 and clodinafop treatments, alone and in combination, also included a surfactant. Weed species present in the experimental plots in sufficient quantity to be evaluated included wild oat (AVEFA, Avena fatua L.), common lambsquarters (CHEAL, Chenopodium album L.), kochia (KCHSC, Kochia scoparia (L.) Schrad.), wild buckwheat (POLCO, Polygonum convolvulus L.), Russian thistle (SASKR, Salsola kali L. ssp. ruthenica (Iljin) Soo), and field pennycress (THLAR, Thlaspi arvense L.). […] Common lambsquarters was evaluated only at 14 days after application. […] Results are the means of the four replicates.
# wild chamomile (MATCH) = experiment: Test 24 growth chamber, postemergence; format: in vivo, Matricaria chamomilla; details: 17 DAA
# Procedure: as §2
# kochia (KCHSC) = experiment: Test 27 field trial, postemergence; format: in vivo, Kochia scoparia; set-up: scale not given here
# Text: Wheat seeds (cv. ‘Custer’) were planted in late fall season in a clay loam soil. Plots were 9 m long by 1.8 m wide. The field was managed using conventional tillage practices. […] All treatments also included a surfactant. […] Results are the means of the three replicates.
smiles,measurement,setting,value
"COC(=O)c1nc(C2CC2)nc(N)c1Cl [Compound 2, methyl 6-amino-5-chloro-2-cyclopropyl-4-pyrimidinecarboxylate]",AMBTR Obs,"giant ragweed (AMBTR); 14 DAA, 30 g a.i./ha",97
same,AMBTR Obs,"giant ragweed (AMBTR); 28 DAA, 30 g a.i./ha",100
same,AMBTR Obs,"giant ragweed (AMBTR); 28 DAA, 45 g a.i./ha",100
same,AMBTR Obs,"giant ragweed (AMBTR); 28 DAA, 60 g a.i./ha",100
same,CHEAL Obs (scale 0 to 100),[1]; Cpd 2 4 g a.i./ha,45
same,CHEAL Obs (scale 0 to 100),[1]; Cpd 2 8 g a.i./ha,60
same,CHEAL Obs (scale 0 to 100),[1]; Cpd 2 16 g a.i./ha,73
same,AMARE Obs (percent of control),"redroot pigweed (AMARE); Cpd 2 15 g a.i./ha, 14 DAA",47%
same,AMARE Obs (percent of control),"redroot pigweed (AMARE); Cpd 2 15 g a.i./ha, 28 DAA",38%
same,AMARE Obs (percent of control),"redroot pigweed (AMARE); Cpd 2 15 g a.i./ha, 56 DAA",0%
same,AMARE Obs (percent of control),"redroot pigweed (AMARE); Cpd 2 30 g a.i./ha, 14 DAA",35%
same,AMARE Obs (percent of control),"redroot pigweed (AMARE); Cpd 2 30 g a.i./ha, 28 DAA",22%
same,AMARE Obs (percent of control),"redroot pigweed (AMARE); Cpd 2 30 g a.i./ha, 56 DAA",0%
same,AMARE Obs (percent of control),"redroot pigweed (AMARE); Cpd 2 45 g a.i./ha, 14 DAA",28%
same,AMARE Obs (percent of control),"redroot pigweed (AMARE); Cpd 2 45 g a.i./ha, 28 DAA",20%
same,AMARE Obs (percent of control),"redroot pigweed (AMARE); Cpd 2 45 g a.i./ha, 56 DAA",28%
same,PAPRH Obs (scale 0 to 100),field poppy (PAPRH); Cpd 2 4 g a.i./ha,62
same,PAPRH Obs (scale 0 to 100),field poppy (PAPRH); Cpd 2 8 g a.i./ha,72
same,PAPRH Obs (scale 0 to 100),field poppy (PAPRH); Cpd 2 16 g a.i./ha,75
same,SASKR Obs (scale 0 to 100),Russian thistle (SASKR); Cpd 2 4 g a.i./ha,63
same,SASKR Obs (scale 0 to 100),Russian thistle (SASKR); Cpd 2 8 g a.i./ha,75
same,SASKR Obs (scale 0 to 100),Russian thistle (SASKR); Cpd 2 16 g a.i./ha,75
same,ABUTH Obs,"velvetleaf (ABUTH); 14 DAA, 30 g a.i./ha",86
same,ABUTH Obs,"velvetleaf (ABUTH); 14 DAA, 45 g a.i./ha",64
same,ABUTH Obs,"velvetleaf (ABUTH); 14 DAA, 60 g a.i./ha",95
same,ABUTH Obs,"velvetleaf (ABUTH); 28 DAA, 30 g a.i./ha",80
same,ABUTH Obs,"velvetleaf (ABUTH); 28 DAA, 45 g a.i./ha",59
same,ABUTH Obs,"velvetleaf (ABUTH); 28 DAA, 60 g a.i./ha",90
same,ABUTH Obs,"velvetleaf (ABUTH); 56 DAA, 30 g a.i./ha",40
same,ABUTH Obs,"velvetleaf (ABUTH); 56 DAA, 45 g a.i./ha",57
same,ABUTH Obs,"velvetleaf (ABUTH); 56 DAA, 60 g a.i./ha",63
same,IPOHE Obs,[2]; Cpd 2 32 g a.i./ha,100
same,IPOHE Obs,[2]; Cpd 2 64 g a.i./ha,100
same,THLAR Obs,"field pennycress (THLAR); 14 DAA, Cpd 2 30 g a.i./ha alone or with fenoxaprop 90",0
same,THLAR Obs,"field pennycress (THLAR); 14 DAA, Cpd 2 60 g a.i./ha alone or with clodinafop 56 or fenoxaprop 90",0
same,THLAR Obs,"field pennycress (THLAR); 35 DAA, Cpd 2 30 g a.i./ha alone or with clodinafop 56 or fenoxaprop 90",0
same,THLAR Obs,"field pennycress (THLAR); 35 DAA, Cpd 2 60 g a.i./ha alone or with fenoxaprop 90",8
same,MATCH Obs (scale 0 to 100),wild chamomile (MATCH); Cpd 2 4 g a.i./ha,55
same,MATCH Obs (scale 0 to 100),wild chamomile (MATCH); Cpd 2 8 g a.i./ha,65
same,MATCH Obs (scale 0 to 100),wild chamomile (MATCH); Cpd 2 16 g a.i./ha,72
same,KCHSC Obs,"kochia (KCHSC); 16 DAA, 15 g a.i./ha",30
same,KCHSC Obs,"kochia (KCHSC); 16 DAA, 30 g a.i./ha",65
same,KCHSC Obs,"kochia (KCHSC); 16 DAA, 45 g a.i./ha",78
same,KCHSC Obs,"kochia (KCHSC); 28 DAA, 15 g a.i./ha",43
same,KCHSC Obs,"kochia (KCHSC); 28 DAA, 30 g a.i./ha",79
same,KCHSC Obs,"kochia (KCHSC); 28 DAA, 45 g a.i./ha",94
same,KCHSC Obs,"kochia (KCHSC); 49 DAA, 15 g a.i./ha",32
same,KCHSC Obs,"kochia (KCHSC); 49 DAA, 30 g a.i./ha",73
same,KCHSC Obs,"kochia (KCHSC); 49 DAA, 45 g a.i./ha",96
